The values that follow come from patent US10695314B2, “Antimicrobial composition containing 7,10-epoxyoctadeca-7,9-dienoic acid as active ingredient” (priority 2016, dated 2020).

Converted amounts (≈) assume the structure as drawn. Where a SMILES comes first, the peptide text is derived from it. Bridges are numbered along the chain shown (N, C = ends). [ ]: non-standard residue; d: D form. The star is where a group is joined. Ileψ(thiazoline)Cys = CC[C@H](C)[C@H](N)C1=N[C@H](C(=O)*)CS1; dOrn = NCCC[C@@H](N)C(=O)O

Test [1] has as its system MDRSA 01ST001. Description: Minimal inhibitory concentration (MIC), broth microdilution per CLSI. Conditions: Staphylococcus aureus. For orientation: Dilution methods test growth across graded concentrations, often in twofold steps.
Test [2] relates to Staphylococcus aureus ATCC 29213. In words: Antimicrobial activity on solid medium (clear zone around filter paper). It counts as cell-based. The note with it: FIG. 3. The method, then: (§1) First, 1.5% of potato agar was added to the YDP medium, sterilized, and then an agar plate hardened by pouring about 20 ml in a plastic Petri dish was used. MRSA 01ST001 was diluted to about 107/ml, and then about 500 μl was dispersed evenly on the agar plate.
(§2) The size of the clear zone around the filter paper shown after the culture at 37° C. for 2 to 3 days after the inoculation was measured to confirm the degree of antimicrobial activity. At this time, vancomycin 100 μg, oxacillin 100 μg, ampicillin 100 μg, streptomycin 100 μg, and penicillin 100 μg were used as control groups.
(§3) The antimicrobial activity can be confirmed with the degree showing the clear zone on the agar plate. It is judged that the larger the clear zone, the higher the antimicrobial activity. The results are illustrated in FIG. 1 and FIG. 2.
(§4) The results are illustrated in FIG. 3. The experiment was carried out in the same manner as in Example 1-2.

The subject of test [3] is MRSA 01ST001 (MDRSA 01ST001). The test is described as above. It counts as cell-based, Staphylococcus aureus. The note with it: for clear zone on agar plate: 100 μg per filter paper, 37° C., 2 to 3 days, FIG. 1. As to the method:
as §1, §2, §3, §4

The next test deals with E. coli ATCC 8739. Description: Checker board synergy evaluation (MIC, FICI). Type of test: cell-based. The note with it: Escherichia coli, ATCC8739, 24 h; strain 8739; single agent. The method, then: (§5) Interactions of the selected antibiotic or 7,10-EODA of the present invention were evaluated using the checker board method (Nair et al. 2015). […] To obtain various concentrations of 7,10-EODA and antibiotic combination, a 2-fold dilution of the beta-lactam antibiotic was placed on the same plate. About 10^5 CFU/mL of microorganisms to be tested was added to the wells of each plate, and cultured for 24 hours at 37° C. without shaking. At the end of the culture period, cell growth was measured at OD600 using a spectrophotometer. Each 7,10-EODA and antibiotic combination was repeated at least three times. MIC was identified at the lowest concentration of antibiotics with growth inhibition of 90% or higher. FICAB means fractional inhibitory concentration (FIC) of drug A in the presence of drug B, and FICBA means fractional inhibitory concentration (FIC) of drug B in the presence of drug A. The fractional inhibitory concentration index (FICI) represents the sum of the FIC values of the interacting antibiotics. Interactions are based on FICI values, with FICIs less than 0.5 being categorized as synergy, FICIs 0.5 to 4 being indifferent, and FICIs greater than 4 being antagonistic. The degree of synergy was also measured based on the conventional Bliss independence model of synergy (Morones-Ramirez et al. 2013). Specifically, the degree of synergy was calculated by the following equation: S indicates degree of synergy, fAB indicates bacterial growth (optical density) when 7,10-EODA and antibiotics are used in combination, fA0 and f0B represent bacterial growth for antibiotic alone or 7,10-EODA single treatment, respectively. f00 represents bacterial growth in the absence of drug. The degree of synergy is divided into three categories based on the S value, where 0 means neutral, greater than 0 means synergism, and less than 0 means antagonism. S=(fA0/f00)(f0B/f00)−(fAB/f00)
(§6) The antimicrobial activity synergistic effects according to the combination treatment of 7,10-EODA and each antibiotic on methicillin-resistant Staphylococcus aureus (MRSA) strains 085, 093, 120, 136, and 165, MDRSA 01ST001, which is a multidrug-resistant Staphylococcus aureus (MDRSA) strain, E. coli ATCC 8739, and S. typhimurium KCTC 2515 were confirmed. […] Fractional inhibitory concentration indices (FICI) values accordingly were confirmed.

In another test the test system is MRSA strain 136. In words: Checker board synergy evaluation (MIC, FICI). Type of test: cell-based. The note with it: Staphylococcus aureus, 24 h, strain 136, single agent, read-out: MIC. As to the method:
as §5, §6

The test system of the next test is MRSA strain 120. In words: Checker board synergy evaluation (MIC, FICI). It counts as cell-based. Conditions: Staphylococcus aureus, 24 h, strain 120, single agent, read-out: MIC. The method, then:
as §5, §6

The test system of the next test is MRSA strain 093. In words: Checker board synergy evaluation (MIC, FICI). Type of test: cell-based. Conditions: Staphylococcus aureus, 24 h, strain 093, single agent, read-out: MIC. As to the method: as §5, §6
For test [4], the system named is MDRSA 01ST001. Description: Checker board synergy evaluation (MIC, FICI). Conditions: Staphylococcus aureus, 24 h; strain 001; single agent. It counts as cell-based. The method, then: as §5, §6
A further test deals with MRSA strain 085. Description: Checker board synergy evaluation (MIC, FICI). Type of test: cell-based. The note with it: Staphylococcus aureus, 24 h, strain 085, single agent, read-out: MIC. The method, then: as §5, §6
The subject of another test is MRSA strain 165. In words: Checker board synergy evaluation (MIC, FICI). The note with it: Staphylococcus aureus, 24 h, strain 165, single agent, read-out: MIC. It counts as cell-based. As to the method:
as §5, §6

The subject of test [5] is Staphylococcus aureus ATCC 29213. In words: Agar disk diffusion analysis, zone of inhibition (ZOI). It counts as cell-based. Conditions: strain 29213; for ZOI without 7.10-EODA: antibiotic ½×MIC alone; for ZOI with 7.10-EODA: antibiotic ½×MIC with 7,10-EODA ¼×MIC. The method, then: (§7) For synergy effect screening, a 0.1 mL aliquot of MRSA or MSSA strain (5×10^5 CFU/mL) cultured in a log-phase on TSA plates was inoculated. […] A disk including DMSO alone or 7,10-EODA alone (¼×MIC) was used as a control group. The plates were cultured under conditions of […] and 24 hours, and a synergistic effect was observed when the disk periphery including both antibiotic and 7,10-EODA was at least 5 mm in zone of inhibition (ZOI).
(§8) Specifically, the minimal inhibitory concentration (MIC) was measured according to the method of Experimental Example 4 above, and the degree of inhibition (Agar diffusion analysis) (zone of inhibition; ZOI) was measured according to the method of Experimental Example 5 above.
Background: In agar diffusion tests the substance spreads into inoculated agar from a disc or well.

Test [6] has the same test system. Description: Minimal inhibitory concentration (MIC), broth microdilution per CLSI. It counts as cell-based. Conditions: Staphylococcus aureus, ATCC29213; strain 29213 (ATCC 29213); antibiotic alone; read-out: MIC. The method, then: The minimum inhibitory concentration (MIC) of antibiotics and the activity of 7,10-EODA of the present invention against Staphylococcus aureus strains were measured according to the CLSI guideline (CLSI document M100-517, 2007). Specifically, each antibiotic or 7,10-EODA was diluted 2-fold (200-0.97 μg/mL) by adding MHB (Mueller-Hinton Broth) to a 96-well microtiter plate. In the mid-exponential phase (0.5 OD600), the culture was diluted 10-fold with MHB and 0.1 mL aliquots of the diluent were added to wells containing the serially diluted test reagent and cultured at 37° C. for 12 hours. About the end of the culture period, the cell density was measured at an optical density of 600 nm (OD600) using a […].
as §8

Another test has as its system S. typhimurium KCTC 2515. Description: Checker board synergy evaluation (MIC, FICI). Type of test: cell-based, Salmonella typhimurium. The note with it: Salmonella enterica, 24 h; strain 2515; single agent. The method, then: as §5, with “S=(fA0/f00)(f0B/f00)−(fAB/f00) […]” for “S=(fA0/f00)(f0B/f00)−(fAB/f00)”
In test [7] the test system is MDRSA 01ST001. In words: Agar disk diffusion analysis, zone of inhibition (ZOI). Type of test: cell-based, Staphylococcus aureus. The note with it: for antimicrobial activity, disk diffusion: 100 μg each, FIG. 4; for antimicrobial activity effect in combination with 7,10-EODA: antibiotic treated in combination with 7,10-EODA, Table 1 summary; for ZOI without 7.10-EODA / ZOI with 7.10-EODA: strain 001; for ZOI without 7.10-EODA: antibiotic ½×MIC alone; for ZOI with 7.10-EODA: antibiotic ½×MIC with 7,10-EODA ¼×MIC. The method, then:
as §7
Specifically, in order to compare the antimicrobial activity of the 7,10-EODA or the antibiotic of the present invention against the MDRSA 01ST001 strain, the MDRSA 01ST001 strain was treated with the 7,10-EODA (E 100 μg) of the present invention, streptomycin (S, 100 μg), ampicillin (A, 100 μg), oxacillin (O, 100 μg), vancomycin (V, 100 μg), or penicillin (P, 100 μg), according to the method described in Experimental Example 5.
as §8

Test [8] concerns MDRSA 01ST001. In words: Degree of synergy (Bliss independence model). Type of test: cell-based, Staphylococcus aureus. The note with it: antibiotic ¼×MIC in combination with 7,10-EODA 15.6 μg/mL (⅛×MIC), 24 hours. As to the method:
as §5
(§9) The results are illustrated in FIG. 10. […]

In the next test the test system is MRSA 01ST018. In words: Degree of synergy (Bliss independence model). Type of test: cell-based, Staphylococcus aureus. Conditions: antibiotic ¼×MIC in combination with 7,10-EODA 15.6 μg/mL (⅛×MIC); 24 hours; MRSA 018. The method, then: as §5, §9

What is called MIC is the least concentration at which growth counts as inhibited. `Cc1onc(-c2ccccc2)c1C(=O)N[C@@H]1C(=O)N2[C@@H]1SC(C)(C)[C@@H]2C(=O)O` [OXA, oxacillin]: the minimum inhibitory concentration (MIC) amounted to 62.5 µg/mL (≈ 156 µM) against MDRSA 01ST001 [1]; 200 µg/mL in the test on E. coli ATCC 8739; 62.5 µg/mL in the test with MRSA strain 136; 250 µg/mL in the test with MRSA strain 120; 2000 µg/mL with MRSA strain 093; 62.5 µg/mL in the test with MDRSA 01ST001 [4]. In addition, the MIC in the test with MRSA strain 085 was 250 µg/mL; with MRSA strain 165 it was 31.2 µg/mL; in test [6] it was 0.04 µg/mL (≈ 0.0996 µM); with S. typhimurium KCTC 2515, 250 µg/mL. Besides, the “antimicrobial activity on solid medium” value in test [2] is given as “high antimicrobial activity”; in test [3] (MDRSA 01ST001, FIG. 3), “did not show an antimicrobial activity”. Also, the “clear zone on agar plate” value in test [3] was “no clear zone appeared”. For the same compound, the “ZOI without 7.10-EODA” value in test [5] is on record as 8.3 ± 0.1 mm; in the test on MDRSA 01ST001 [7] it was 6.0 ± 0.1 mm. Besides, the “ZOI with 7.10-EODA” value is given as 9.60 mm in test [5] and 14.1 mm in the test with MDRSA 01ST001 [7]. Also, the “antimicrobial activity, disk diffusion” value in the test with MDRSA 01ST001 [7] was “resistant”. Moreover, the “antimicrobial activity effect in combination with 7,10-EODA” value in the test with MDRSA 01ST001 [7] is recorded as “strong antimicrobial activity effect”.
Regarding `CC1(C)S[C@@H]2[C@H](NC(=O)[C@H](N)c3ccccc3)C(=O)N2[C@H]1C(=O)O` [AMP, ampicillin], the MIC against MDRSA 01ST001 [1] was determined as 1000 µg/mL (≈ 2860 µM); in the test with E. coli ATCC 8739 it was 0.6 µg/mL; in the test on MRSA strain 136, 1000 µg/mL; with MRSA strain 120 it was 250 µg/mL; with MRSA strain 093, 31.2 µg/mL; with MDRSA 01ST001 [4] it was 1000 µg/mL. In addition, the MIC was 1000 µg/mL in the test with MRSA strain 085, 2000 µg/mL with MRSA strain 165, 1.97 µg/mL (≈ 5.64 µM) in test [6] and 0.6 µg/mL in the test on S. typhimurium KCTC 2515. The “clear zone on agar plate” value in test [3] is on record as “no clear zone appeared”. For the same compound, the “ZOI without 7.10-EODA” value is recorded as 16.9 ± 0.3 mm in [5] and 7.3 ± 0.2 mm in the test on MDRSA 01ST001 [7]. Moreover, the entries for the “ZOI with 7.10-EODA” value (in test [5]; in the test with MDRSA 01ST001 [7]) were 17.0 mm and 14.2 mm, respectively. Besides, in the test with MDRSA 01ST001 [7], the “antimicrobial activity, disk diffusion” value was “resistant”. For the same compound, the “antimicrobial activity effect in combination with 7,10-EODA” value with MDRSA 01ST001 [7] is “strong antimicrobial activity effect”.
As to `CC[C@H](C)[C@H](N)C1=N[C@H](C(=O)N[C@@H](CC(C)C)C(=O)N[C@H](CCC(=O)O)C(=O)N[C@H](C(=O)N[C@H]2CCCCNC(=O)[C@H](CC(N)=O)NC(=O)[C@@H](CC(=O)O)NC(=O)[C@H](Cc3cnc[nH]3)NC(=O)[C@@H](Cc3ccccc3)NC(=O)[C@H]([C@@H](C)CC)NC(=O)[C@@H](CCCN)NC2=O)[C@@H](C)CC)CS1` [bacitracin] ({Ileψ(thiazoline)Cys}-L[dE]IK[dOrn]I[dF]H[dD]N; lactam 4-C), the synergy index in the test with MDRSA 01ST001 [8] was determined as 0.8.
Consider gentamicin, for which the synergy index with MRSA 01ST018 turned out to be 1.32; with MDRSA 01ST001 [8] it was 1.37.
